According to patent US9018253B2, “Phenylcarbamate compound and muscle relaxant containing the same” (Bio-Pharm Solutions Co., Ltd., priority 2010, dated 2015):
Marks after values point to notes of the source that are not given here.

Legend:
Type in all cases: in vivo
male mice (ICR) [1] = experiment: Residence time on a rotarod rotating at a fixed speed (Fixed 15 r.p.m. Rotarod, muscle relaxation); conditions: intraperitoneal (10 ul/g, bw), at time of maximum effect, 50% vs vehicle only (100%), 15 rpm, max 10 min
Method: (§1) For testing, male mice (ICR) were purchased from ORIENT BIO INC. (Korea), divided into several groups with 6 mice in each group, and were adapted for 4-5 days. The mice having the weight ranging from 19 g to 26 g were employed for the test. The pharmacological effect of the test compounds on muscle relaxation was evaluated by Rotarod test, grip strength test, and muscular force (wire hang) test. All mice were adapted to the test environment at one hour before starting the tests. The pharmacological effects of all the test compounds were evaluated by administration through peritoneal cavity of the mice (10 ul/g, bw).
All the mice to be tested were preliminarily trained for 5 minutes on a rod rotating at the rate of 15 revolutions per a minute. The mice that could not remain on the rod without falling off therefrom for a minimum of 2 minutes were excluded from this testing. After the training, all the mice were allowed to rest for 45-60 minutes. Before the administration of the test compounds, the mice were subjected to a further training for one minute on the rod rotating under the same condition, where the mice falling off from the rod were excluded from this experimentation. […] In case a mouse stays on the rod until the test is finished, the time was recorded as 10 minutes. As test time for evaluation, a maximum of 10 minutes was applied. This experimentation was conducted according to the method described in the reference, ‘Yasuda et al. (2005) Antipyretic, analgesic and muscle relaxant activities of Pueraria isoflavonoids and their metabolites from Pueraria lobata Ohwi—a traditional Chinese drug. Biol. Pharm. Bull. 28: 1224-1228’.
(§2) The obtained results are shown as mean±sem. The difference between the groups was statistically analyzed by ANOVA, and then, further examined by Dunnett's test or Bonferroni test. If p is less than 0.05, it was determined that the difference between the groups had statistical significance.
(§3) The results of muscle relaxation activity of the phenyl carbamate compounds measured in above Experimental Examples 1 to 4 are shown in following Table 3.

male mice (ICR) [2] = experiment: Grip strength test (forelimbs, muscle relaxation); conditions: for ED50: Mus musculus, ip, intraperitoneal (10 ul/g, bw), at time of maximum effect, 50% vs vehicle only (100%), read-out: MR test ED50, III = Grip strength
Method: as §1
A grip strength test using the test animals' forelimbs was performed using an instrument equipped with triangle ring and designed so as to easily grip with the forelimbs of experimental animals, manufactured from Ugo Basile Inc. (Ugo Basile, Model 47106, Italy). The test was conducted before and after administration of the compounds to evaluate the effects thereof. […] The mouse was made to grip the rod with its forelimbs, and its tail was pulled, where the force at which the mouse detached from the rod was recorded. The instrument indicated the force in grams. All of the mice were given 3 opportunities for test, and the 3 highest values among the test opportunities were selected and the mean value was used as the test result. This experimentation was conducted according to the method described in the reference, ‘Nevins et al. (1993) Quantitative grip strength assessment as a means of evaluating muscle relaxation in mice. Psychopharmacol. 110: 92-96’.
as §2, §3

male mice (ICR) [3] = experiment: Wire hang test (muscular force, muscle relaxation); conditions: for ED50: Mus musculus, ip, intraperitoneal (10 ul/g, bw), at time of maximum effect, 50% vs vehicle only (100%), read-out: MR test ED50, IV = Wire hang; for IV = Wire hang, effect (%) compared to that of control treated with vehicle only: 100 mg/kg administered, intraperitoneal
Method: as §1
This experimentation was conducted using a metal wire of 30 cm in length, which was suspended between two pillars at a height of about 40 cm from the bottom covered with a soft pad. […] Each mouse was made to grip the wire using two forelimbs, and the elapse time before the mouse fell off from the wire to the pad on the bottom was recorded in seconds. Each mouse was given 5 opportunities for this test at an interval of 2 minutes period. The highest 3 records among the test opportunities were selected and the mean value was used as the test result. This experimentation was conducted according to the method described in the reference, ‘Jacqueline N. Crawley (1999) Behavioral phenotyping of transgenic and knockout mice: experimental design and evaluation of general health, sensory functions, motor abilities, and specific behavioral tests. Brain Res. 835: 18-26’.
as §2, §3

male mice (ICR) [4] = experiment: Endurance time on a rotarod rotating at accelerated speed (Acc. Rotarod, muscle relaxation); conditions: Mus musculus, ip, 5 min, intraperitoneal (10 ul/g, bw), at time of maximum effect, 50% of muscle relaxation activity vs vehicle only (100%), rod accelerated 4 to 40 rpm, max 5 min, read-out: MR test ED50, I = Acc. Rotarod
Method: as §1
At 24 hours before testing, the mice to be tested were preliminarily trained for 5 minutes on a rod rotating at the rate of 6 revolutions per a minute. The pharmacological effect on muscle relaxation of the test compounds were evaluated by observing the mice on a rod for 5 minutes, where the rod was accelerated from 4 to 40 revolutions per a minute during the test time. The endurance time that each mouse endures on the acceleratedly rotated rod without falling off from the rod was recorded. As test time for evaluation, a maximum of 5 minutes was applied. […] This experimentation was conducted according to the method described in the reference, ‘Monville et al. (2006) Comparison of incremental and accelerating protocol of the rotarod test for the assessment of motor deficits in the 6-OHDA model. J. Neurosci. Meth. 158: 219-223’.
as §2, §3

Structure (SMILES)	MR test ED50, II = Fixed 15 r.p.m. Rotarod (male mice (ICR) [1])	also measured
CCCNC(=O)O[C@@H](C)[C@@H](O)c1ccccc1Cl [Compound 16, 1-(2-chlorophenyl)-(S)-1-hydroxypropyl-(S)-2-N-propylcarbamate]	61.6 mg/kg, bw	
CC(C)NC(=O)O[C@H](C)[C@H](O)c1ccccc1Cl [Compound 24, 1-(2-chlorophenyl)-(R)-1-hydroxypropyl-(R)-2-N-isopropylcarbamate]	44.3 mg/kg, bw	
C[C@H](OC(N)=O)[C@@H](O)c1ccccc1Cl [Compound 1, 1-(2-chlorophenyl)-(S)-1-hydroxypropyl-(S)-2-carbamate]	23.3 mg/kg, bw	
C[C@@H](OC(N)=O)[C@H](O)c1ccccc1Cl [Compound 2, 1-(2-chlorophenyl)-(R)-1-hydroxypropyl-(R)-2-carbamate]	76.5 mg/kg, bw	
C[C@@H](OC(=O)NC1CC1)[C@H](O)c1ccccc1Cl [Compound 25, 1-(2-chlorophenyl)-(R)-1-hydroxypropyl-(R)-2-N-cyclopropylcarbamate]	18.3 mg/kg, bw	ED50 (male mice (ICR) [2]): 46.1 mg/kg; ED50 (male mice (ICR) [3]): 32.9 mg/kg; ED50 (male mice (ICR) [4]): 30 mg/kg
C[C@@H](OC(N)=O)[C@@H](O)c1ccccc1Cl [Compound 5, 1-(2-chlorophenyl)-(S)-1-hydroxypropyl-(R)-2-carbamate]	65.5 mg/kg, bw	ED50 (male mice (ICR) [2]): 95 mg/kg; ED50 (male mice (ICR) [3]): 52.5 mg/kg; ED50 (male mice (ICR) [4]): 66.9 mg/kg
CNC(=O)O[C@H](C)[C@H](O)c1ccccc1Cl [Compound 22, 1-(2-chlorophenyl)-(R)-1-hydroxypropyl-(R)-2-N-methylcarbamate]	25.1 mg/kg, bw	
CC(OC(N)=O)C(O)c1ccccc1Cl (racemic) [Compound 3, 1-(2-chlorophenyl)-1-hydroxypropyl-2-carbamate]	47.7 mg/kg, bw	
C[C@H](OC(N)=O)[C@@H](O)c1ccccc1I [Compound 65, 1-(2-iodophenyl)-(S)-1-hydroxypropyl-(S)-2-carbamate]	28.0 mg/kg, bw	
C[C@H](OC(N)=O)[C@@H](O)c1ccccc1F [Compound 63, 1-(2-fluorophenyl)-(S)-1-hydroxypropyl-(S)-2-carbamate]		IV = Wire hang, effect (%) compared to that of control treated with vehicle only (male mice (ICR) [3]): 100 ^a (84.2%)
CNC(=O)O[C@@H](C)[C@@H](O)c1ccccc1Cl [Compound 15, 1-(2-chlorophenyl)-(S)-1-hydroxypropyl-(S)-2-N-methylcarbamate]	42.8 mg/kg, bw	
CC(C)NC(=O)O[C@@H](C)[C@@H](O)c1ccccc1Cl [Compound 17, 1-(2-chlorophenyl)-(S)-1-hydroxypropyl-(S)-2-N-isopropylcarbamate]	66.4 mg/kg, bw	
C[C@H](OC(=O)NC1CC1)[C@@H](O)c1ccccc1Cl [Compound 18, 1-(2-chlorophenyl)-(S)-1-hydroxypropyl-(S)-2-N-cyclopropylcarbamate]	61.2 mg/kg, bw	
CNC(=O)OC(C)C(O)c1ccccc1Cl (racemic) [Compound 29, 1-(2-chlorophenyl)-1-hydroxypropyl-2-N-methylcarbamate]	41.0 mg/kg, bw	
CC[C@H](OC(N)=O)[C@@H](O)c1ccccc1I [Compound 67, 1-(2-iodophenyl)-(S)-1-hydroxybutyl-(S)-2-carbamate]	30.2 mg/kg, bw	
C[C@@H](OC(N)=O)[C@H](O)c1ccccc1I [Compound 66, 1-(2-iodophenyl)-(R)-1-hydroxypropyl-(R)-2-carbamate]	67.9 mg/kg, bw	
C[C@@H](OC(N)=O)[C@H](O)c1ccccc1F [Compound 64, 1-(2-fluorophenyl)-(R)-1-hydroxypropyl-(R)-2-carbamate]		III = Grip strength, effect (%) compared to that of control treated with vehicle only (male mice (ICR) [2]; 120 mg/kg administered, intraperitoneal): 120 ^a (35.4%); IV = Wire hang, effect (%) compared to that of control treated with vehicle only (male mice (ICR) [3]): 100 ^a (30.8%)
C[C@H](OC(N)=O)[C@H](O)c1ccccc1Cl [Compound 4, 1-(2-chlorophenyl)-(R)-1-hydroxypropyl-(S)-2-carbamate]	65.0 mg/kg, bw	ED50 (male mice (ICR) [2]): 124 mg/kg; ED50 (male mice (ICR) [3]): 40 mg/kg; ED50 (male mice (ICR) [4]): 69.3 mg/kg
